Read-outs that look alike come from different tables or passages of the source.
Tests used:
[1] = test system: H3K4me2 in the P19 cell line; conditions: cited from earlier work
[2] = test system: HCT116 human colon tumor xenograft; assay: HCT116 human colon tumor xenograft model; format: in vivo, athymic nu/nu Fox Chase mice; conditions: 2 mg/kg, 5 times a week over 38 days
Procedure: Previously, various polyaminobiguanidides were evaluated in an HCT116 human colon tumor xenograft model in athymic nu/nu Fox Chase mice. Mice were treated with polyaminobiguanidides, 5-azacytidine (5-AC) or a combination of the two agents. Drugs were administered 5 times a week over a period of 38 days.

H3K4me2 = H3K4me2 level by Western blotting of nuclear fractions; format: cell-based; conditions: Homo sapiens
Procedure: Synthetic H3K4me2 peptides were purchased from Millipore (Billerica, Mass.). Calu-6 cells were maintained in RPMI medium, both supplemented with 10% fetal bovine serum (Gemini Bio-Products, Woodland, Calif.) and grown at 37° C. in 5% CO2 atmosphere.
Cytoplasmic and nuclear fractions were prepared for Western blot analysis using the NE-PER™ Nuclear and Cytoplasmic Extraction Kit (Pierce, Rockford, Ill.). Primary antibodies against H3K4me2 were from Millipore. The pCNA monoclonal antibody was purchased from Oncogene Research Products (Cambridge, Mass.). Dye-conjugated secondary antibodies were used for quantification of Western blot results using the Odyssey Infrared Detection system and software (LI-COR Biosciences, Lincoln, Nebr.).

recombinant human LSD1 = molecular target: T1, recombinant human LSD1 (Homo sapiens, UniProt O60341); assay: LSD1 demethylase assay, luminol-dependent chemiluminescence (H2O2 production), H3K4me2 (1-21 aa) peptide substrate; format: biochemical; conditions: compound at 10 μM
T1 construct: Full-length human LSD1 cDNA was subcloned into the pET15b bacterial expression vector; 6xHis (N); made in house; host or cells: Escherichia coli BL21(DE3)
Procedure: Full-length human LSD1 cDNA was subcloned into the pET15b bacterial expression vector (Novagen, Madison, Wis.) in frame with an N-terminal 6×HIS-tag and transformed into the BL21(DE3) strain of Escherichia coli. Following selection, expression and purification of recombinant LSD1 protein were performed as previously described. Briefly, expression of LSD1-HIS protein was induced by 1 mM IPTG for 6 h at 25° C. The HIS-tagged protein was purified using Ni-NTA affinity purification resin and column as recommended by the manufacturer (Qiagen, Valencia, Calif.). Bound protein was eluted by imidazole and the eluate was dialyzed in PBS at 4° C. Enzymatic activity of LSD1 was examined using luminol-dependent chemiluminescence to measure the production of H2O2, as previously described. In brief, LSD1 activity was assayed in 50 mM Tris, pH 8.5, 50 mM KCl, 5 mM MgCl, 5 nmol luminol, and 20 μg/ml horseradish peroxidase with the indicated concentrations of H3K4me2 (1-21 aa) peptide as substrate. The integral values were calibrated against standards containing known concentrations of H2O2, and the activities expressed as pmols H2O2/mg protein/min. Reaction mixtures were incubated with or without 5 μg purified LSD1 in 50 mM Tris, pH 8.5, 50 mM KCl, 5 mM MgCl, 0.5% BSA, and 5% glycerol for 3 hr at 37° C. This reaction mixture was analyzed by Western blotting using antibodies (Millipore) that specifically recognize the dimethyl group of H3K4.

[3] = molecular target: recombinant LSD1/CoRest complex (Homo sapiens, UniProt O60341); conditions: cited from earlier work
[4] = 24 h, read-out: H3K4me2 Fold Increase (24 h)
[5] = 48 h, read-out: H3K4me2 Fold Increase (48 h)

For `N[C@@H]1C[C@H]1c1ccccc1` (racemic) [tranylcypromine], the “effect on global levels of H3K4me2 (in words)” value [1] is listed as “increase global levels of H3K4me2”.
In the case of `Nc1ncn([C@@H]2O[C@H](CO)[C@@H](O)[C@H]2O)c(=O)n1` [Entry 5-AC, 5-azacytidine], the “reduction of tumor growth” value [2] is reported as “about 50%”.
`O=C(O)CC(=O)Nc1ccccc1F` [Entry 33] showed a fold induction at 5 µM (H3K4me2; [4]) of 1.81, a fold induction at 10 µM (H3K4me2; [4]) of 1.5 and a fold induction at 5 µM (H3K4me2; [5]) of 3.15. The fold induction at 10 µM (H3K4me2; [5]) was 1.09 and the remaining activity at 10 µM (recombinant human LSD1) was 98.2%.
For `O=C(O)CCC(=O)Nc1ccccc1F` [Entry 34], the remaining activity at 10 µM (recombinant human LSD1) was 92.6%.
Work on `O=C(O)CCCC(=O)Nc1ccccc1F` [Entry 35] yielded a remaining activity at 10 µM (recombinant human LSD1) of 100%.
For `O=C(O)CCCCC(=O)Nc1ccccc1F` [Entry 36], the remaining activity at 10 µM (recombinant human LSD1) was 76.4%.
In the case of `O=C(O)CCCCCC(=O)Nc1ccccc1F` [Entry 37], the remaining activity at 10 µM (recombinant human LSD1) is reported as 95.9%.
With `COC(=O)[C@@H](N)CCCCNC(=O)CC(=O)Nc1ccccc1F` [Entry 38] the fold induction at 5 µM (H3K4me2; [4]) was 0.3, the fold induction at 10 µM (H3K4me2; [4]) was 0.2 and the fold induction at 5 µM (H3K4me2; [5]) was 0.7. It also gave a fold induction at 10 µM (H3K4me2; [5]) of 5.6 and a remaining activity at 10 µM (recombinant human LSD1) of 88.4%.
Work on `COC(=O)[C@H](CCCCNC(=O)NC(c1ccccc1)c1ccccc1)NC(=O)CC(=O)Nc1ccccc1F` [Entry 39] yielded a remaining activity at 10 µM (recombinant human LSD1) of 100%.
`COC(=O)[C@H](CCCCNC(=O)NCC(c1ccccc1)c1ccccc1)NC(=O)CC(=O)Nc1ccccc1F` [Entry 40] gave a remaining activity at 10 µM (recombinant human LSD1) of 100%.
In the case of `COC(=O)[C@H](CCCCNC(=O)NCCC(c1ccccc1)c1ccccc1)NC(=O)CC(=O)Nc1ccccc1F` [Entry 41], the remaining activity at 10 µM (recombinant human LSD1) is reported as 100%.
With `COC(=O)[C@H](CCCCNC(=S)NC(c1ccccc1)c1ccccc1)NC(=O)CC(=O)Nc1ccccc1F` [Entry 42] the fold induction at 5 µM (H3K4me2; [4]) was 49.1, the fold induction at 10 µM (H3K4me2; [4]) was 60.6 and the fold induction at 5 µM (H3K4me2; [5]) was 0.5. It also gave a fold induction at 10 µM (H3K4me2; [5]) of 3 and a remaining activity at 10 µM (recombinant human LSD1) of 100%.
Work on `COC(=O)[C@H](CCCCNC(=S)NCC(c1ccccc1)c1ccccc1)NC(=O)CC(=O)Nc1ccccc1F` [Entry 43] yielded a remaining activity at 10 µM (recombinant human LSD1) of 100%.
In the case of `COC(=O)[C@H](CCCCNC(=S)NCCC(c1ccccc1)c1ccccc1)NC(=O)CC(=O)Nc1ccccc1F` [Entry 44], the remaining activity at 10 µM (recombinant human LSD1) is reported as 100%.
`C#CCN(CC#C)CCCC[C@H](NC(=O)CC(=O)Nc1ccccc1F)C(=O)OC` [Entry 45] gave a remaining activity at 10 µM (recombinant human LSD1) of 84.1%.
Compound `C#CCNCCCC[C@H](NC(=O)CC(=O)Nc1ccccc1F)C(=O)OC` [Entry 46] has a remaining activity at 10 µM (recombinant human LSD1) of 90.4%.
Compound `C#CCN(CC#C)CCCC[C@H](NC(=O)CCC(=O)Nc1ccccc1F)C(=O)OC` [Entry 47] has a remaining activity at 10 µM (recombinant human LSD1) of 92.4%.
`C#CCN(CC#C)CCCC[C@H](NC(=O)CCCC(=O)Nc1ccccc1F)C(=O)OC` [Entry 48] showed a remaining activity at 10 µM (recombinant human LSD1) of 100%.
Compound `C#CCN(CC#C)CCCC[C@H](NC(=O)CCCCC(=O)Nc1ccccc1F)C(=O)OC` [Entry 49] has a remaining activity at 10 µM (recombinant human LSD1) of 100%.
In the case of `C#CCN(CC#C)CCCC[C@H](NC(=O)CCCCCC(=O)Nc1ccccc1F)C(=O)OC` [Entry 50], the remaining activity at 10 µM (recombinant human LSD1) is reported as 100%.
In the case of `NNCCc1ccccc1` [phenelzine], the “effect on global levels of H3K4me2 (in words)” value [1] is listed as “increase global levels of H3K4me2” and the “effect on nucleosomal demethylation (in words)” value [3] is listed as “inactivate nucleosomal demethylation”.

Reference: patent US9527805B2, “Small molecules as epigenetic modulators of lysine-specific demethylase 1 and methods of treating disorders” (priority 2010, dated 2016)
